According to patent US12133900B2, “Synthesis and composition of amino acid linking groups conjugated to compounds used for the targeted imaging of tumors” (Purdue Research Foundation, priority 2013, dated 2024):
“Also recorded” adds a separate entry of the source.

Legend:
[1] = Toxicity in healthy nude mice; format: in vivo
Description: Seven-week-old healthy female nude mice (5 mice/group) were administered with 1 μmol of freshly prepared OTL-0038 or OTL-0039 dissolved in 100 μL of phosphate buffered saline via tail vein injection on day zero. Body weights and clinical observations were monitored prior to dosing and daily thereafter from day zero to 7. Any animals with a body weight loss of 20% or more over two consecutive days would be euthanized, but this was not necessary. The animals were euthanized by CO2 asphyxiation on day 7 and selected tissues (brain, heart, lung, liver, spleen, kidney, stomach, small intestine, large intestine, muscle, skin) were collected into vials containing 4% formalin. Formalin fixed tissues were sectioned into 10 μm thick sections and mounted onto Superfrost Plus™ slides (Fisher Scientific, Pittsburgh Pa.). After staining the slides with H&E, immunohistochemistry (IHC) analysis of the tissues was conducted to determine to the toxicity of OTL-0038 and OTL-0039.

FR-positive M109 tumors = experiment: Imaging and biodistribution, M109 metastatic model; format: in vivo, mice; conditions: 2 nmol, 2 h
Description: Seven-week-old female nu/nu mice were inoculated subcutaneously with KB (1.0×10^6/mouse in RPM11640 medium), IGROV (5.0×10^6/mouse in 50% high concentrated matrigel+RPM11640 medium), SKOV3 (5.0×10^6/mouse in RPM11640 medium), OVCAR3 (5.0×10^6/mouse in RPM11640 medium), MDA-MB231 (1.0×10^6/mouse in RPM11640 medium), M109 (1.0×10^6/mouse in RPM11640 medium) or A549 cells (2.0×10^6/mouse in RPM11640 medium) on the shoulder. Growth of the tumors was measured in perpendicular directions every 2 days using a caliper (body weights were monitored on the same schedule), and the volumes of the tumors were calculated as 0.5×L×W^2 (L=longest axis and W=axis perpendicular to L in millimeters). Once tumors reached approximately 300-400 mm3 in volume, animals (3-5 mice/group) were intravenously injected with the compound of interest in PBS (for dose escalation in KB tumor model: 0.3-90 nmol, for time dependent in KB tumor model: 2 or 10 nmol, and for general whole body imaging and biodistribution for all tumor models: 2 nmol, in 100 μL in PBS per mouse). […]
(§1) Following whole body imaging, animals were dissected and selected tissues (heart, lung, liver, spleen, kidneys, stomach, small intestine, large intestine, muscle, skin, and tumor) were analyzed for fluorescence activity using IVIS imager using same settings as in whole body imaging.

[2] = system: FR-positive SKOV3 tumor xenografts; experiment: Imaging and biodistribution, SKOV3 ovarian xenograft; format: in vivo, mice; conditions: 2 nmol, 2 h
Description: (§2) Seven-week-old female nu/nu mice were inoculated subcutaneously with KB (1.0×10^6/mouse in RPM11640 medium), IGROV (5.0×10^6/mouse in 50% high concentrated matrigel+RPM11640 medium), SKOV3 (5.0×10^6/mouse in RPM11640 medium), OVCAR3 (5.0×10^6/mouse in RPM11640 medium), MDA-MB231 (1.0×10^6/mouse in RPM11640 medium), M109 (1.0×10^6/mouse in RPM11640 medium) or A549 cells (2.0×10^6/mouse in RPM11640 medium) on the shoulder. Growth of the tumors was measured in perpendicular directions every 2 days using a caliper (body weights were monitored on the same schedule), and the volumes of the tumors were calculated as 0.5×L×W^2 (L=longest axis and W=axis perpendicular to L in millimeters). Once tumors reached approximately 300-400 mm3 in volume, animals (3-5 mice/group) were intravenously injected with the compound of interest in PBS (for dose escalation in KB tumor model: 0.3-90 nmol, for time dependent in KB tumor model: 2 or 10 nmol, and for general whole body imaging and biodistribution for all tumor models: 2 nmol, in 100 μL in PBS per mouse). For whole body imaging and biodistribution studies, animals were euthanized 2 hours after administration of the compound of interest by CO2 asphyxiation. For time dependent studies, animals were imaged under anesthesia using isoflurane. Whole body imaging (intact tumor) experiments was then performed using a Caliper IVIS Lumina II Imaging Station with Living Image 4.0 software (PerkinElmer Inc, MA).
as §1

[3] = system: folate receptor negative A549 tumor xenografts; experiment: Whole body imaging and biodistribution, folate receptor-negative A549 tumor xenografts; format: in vivo, mice; conditions: for specificity for folate receptor (conclusion): FR-negative A549 xenografts
Description: Seven-week-old female nu/nu mice were inoculated subcutaneously with A549 cells (1.0×10^6/mouse in RPM11640 medium) on the shoulder. Growth of the tumors was measured in perpendicular directions every 2 days using a caliper (body weights were monitored on the same schedule), and the volumes of the tumors were calculated as 0.5×L×W^2 (L=longest axis and W=axis perpendicular to L in millimeters). Once tumors reached between 400 and 500 mm3 in volume, animals (6 mice/group) were intravenously injected with 10 nmol of OTL-0038 in phosphate buffered saline (100 μL). After 2.5 h, animals were sacrificed by CO2 asphyxiation. Whole body imaging (intact tumor) experiments were then performed using a Caliper IVIS Lumina II Imaging Station with Living Image 4.0 software (PerkinElmer Inc, MA). Settings for imaging:—lamp level: medium; excitation: 745 nm; emission: ICG (indocyanine green); epi illumination; binning: 4 (M), FOV=12.5; f-stop=2; acquisition time=1 s.
Following whole body imaging, animals were dissected and selected tissues (heart, lung, liver, spleen, kidneys, stomach, small intestine, large intestine, muscle, skin, tumor) were analyzed for fluorescence activity using IVIS imager as before. Settings for imaging:—lamp level: medium; excitation: 745 nm; emission: ICG; epi illumination; binning: 4 (M), FOV=12.5; f-stop=2; acquisition time=1 s.
as §2, §1

[4] = system: FR-positive MDA-MB 231 tumor xenografts; experiment: Imaging and biodistribution, MDA-MB 231 breast xenograft; format: in vivo, mice
Description: as §2, §1

FR-alpha and beta = conditions: cited from earlier work

CC1(C)C(/C=C/C2=C(Oc3ccc(C[C@H](NC(=O)c4ccc(NCc5cnc6nc(N)[nH]c(=O)c6n5)cc4)C(=O)[O-])cc3)C(=C/C=C3\N(CCCCS(=O)(=O)[O-])c4ccc(S(=O)(=O)[O-])cc4C3(C)C)/CCC2)=[N+](CCCCS(=O)(=O)[O-])c2ccc(S(=O)(=O)[O-])cc21.[H+].[H+].[H+].[H+] [OTL-0038, Pte-Tyr-S0456]
toxicity (conclusion) ([1]; 1 μmol (1000× clinical dose)): not toxic to animals
skin colour immediately after the injection ([1]; 1 μmol tail vein): became green
activity and behaviour ([1]; 1 μmol tail vein, day 0 to 7): behaved normally throughout the study
body weights over the course of the study ([1]; 1 μmol tail vein, day 0 to 7): remained stable
lesions in tissues (IHC data) ([1]; 1 μmol tail vein, day 7): no lesions identified in any tissues
tumor-to-normal tissue ratios (FR-positive M109 tumors): excellent tumor-to-normal tissue ratios
whole body imaging: accumulation (FR-positive M109 tumors): accumulated mainly in the FR-positive M109 tumors metastasize to the liver, lung and spleen
ex-vivo tissue biodistribution [2]: highest fluorescence intensities were observed in FR-positive tumors and kidneys
tumor-to-normal tissue ratios [2]: excellent tumor-to-normal tissue ratios
whole body imaging: accumulation [2]: accumulated mainly in the FR-positive SKOV3 tumor xenografts
tissue biodistribution ([3]; 2 nmol i.v., 2 h): no fluorescence was observed in FR-negative tumors
whole body imaging: accumulation ([3]; 2 nmol i.v., 2 h): did not accumulated in the FR-negative tumors
whole body imaging: accumulation ([3]; 10 nmol i.v., 2.5 h): did not accumulated in the folate receptor negative tumors
specificity for folate receptor (conclusion) [3]: highly specific for folate receptor
specificity for folate receptor (conclusion) ([3]; listed as OTL38): highly specific for FR
ex-vivo tissue biodistribution ([4]; 2 nmol, 2 h): highest fluorescence intensities were observed in FR-positive tumors and kidneys
tumor-to-normal tissue ratios ([4]; 2 nmol, 2 h): excellent tumor-to-normal tissue ratios
whole body imaging: accumulation ([4]; 2 nmol, 2 h, listed as OTL38): accumulated mainly in the FR-positive MDA-MB 231 tumor xenografts; also recorded: mainly accumulated in FR-positive MDA-MB 231 tumor xenografts and kidneys
accumulation in tumor and kidneys after blocking the FR ([4]; 100 fold excess of folic acid prior to 2 nmol, 2 h): inhibited by the administration of 100 fold excess of folic acid
specificity for FR (conclusion) ([4]; blocking with excess folic acid): highly specific for FR
affinity for FR-alpha versus beta (FR-alpha and beta): binds to FR-alpha and beta with same affinity
